{"source": "patent EP4342468A1", "about": "“TOLEBRUTINIB SALT AND CRYSTAL FORM THEREOF, PREPARATION METHOD THEREFOR, PHARMACEUTICAL COMPOSITION THEREOF, AND USE THEREOF” (Hangzhou Solipharma Co., Ltd., priority 2021, dated 2022)", "assay_type_in_all_cases": "physicochemical", "key": {"[1]": {"assay": "Stability study of the solid forms under long-term, accelerated, light and oxidation conditions (HPLC and XRPD)", "settings": "for Purity after placing / Purity after: HPLC; for Purity after placing: initial purity 99.46%; for Sample after placing / crystal form after storage: XRPD; for Purity after: initial purity 99.50%", "procedure": "In this application, X-ray powder diffraction (XRPD) data were collected using a BrukerD8 Advance diffractometer; parameters are as follows: Cu radiation; wavelength: 1.54Å; Current voltage: 40KV, 40mA; Scan range: 3 to 40°2θ.\nIn this application, the HPLC parameters for chemical stability and solubility are as follows:\nAn appropriate amount of Form 2 of tolebrutinib monohydrochloride prepared in example 2-1 of this application was placed under long-term (25°C/60% RH/open), accelerated (40°C/75% RH/open), light (25°C/4500lx/closed), and oxidation (in a urea peroxide atmosphere) conditions. Table 1 Stability of Form 2 of tolebrutinib monohydrochloride\nAn appropriate amount of tolebrutinib monohydrochloride Form1 sample prepared in Example 3-1 of this application was taken and placed under long-term (25°C/60% RH/open) and accelerated (40°C/75% RH/open) conditions, HPLC and XRPD testing were regularly conducted. Table 2 Stability of Form 1 of tolebrutinib monohydrochloride"}, "[2]": {"assay": "Solubility in water (supersaturated solution, content by HPLC)", "settings": "for Solubility: 2 hours, monohydrochloride", "description": "In this application, the HPLC parameters for chemical stability and solubility are as follows: […]"}, "[3]": {"assay": "Dynamic vapor sorption (DVS) hygroscopicity", "procedure": "In this application, dynamic moisture adsorption analysis (DVS) data and isothermal adsorption analysis data were obtained using a TA Instruments Q5000 TGA; parameters are as follows: temperature: 25°C; relative humidity range: 0%RH-80%RH; dm/dt =0.001%/min; equilibration time: 90min; gas: N2; sample pan: platinum pan."}, "[4]": {"assay": "Compressibility study (tablet compression, hardness, tensile strength)", "settings": "for hardness: radial breaking force, tablet hardness tester, main pressure 1.8 KN; for diameters / thicknesses: tablet, Φ7.5mm punch, mean main pressure 1.8 KN", "procedure": "The tablet compression was conducted using a Tianxiang rotary tablet press. A circular punch with a diameter of 7.5 mm (Φ7.5mm), a filling depth of 17.9 mm and a mean main pressure of 1.8 KN were used. The tablets' radial breaking force (hardness, H) was measured using a tablet hardness tester. The tablets' diameter (D) and thickness (L) were measured using a vernier caliper. The tensile strength (T) of the powder was calculated using the formula T=2H/πDL*9.8. The results are shown in Table 5: Table 5 Compressibility of Form 2 of tolebrutinib monohydrochloride and Form 1 of tolebrutinib monohydrochloride"}, "[5]": {"assay": "Stability of the crystal form in tablets (XRPD before and after storage)", "settings": "25°C/60% RH", "procedure": "(§1) Following the formulation in Table 6, API, lactose hydrate, polyvinylpyrrolidone, hydroxypropyl cellulose, microcrystalline cellulose and magnesium stearate were mixed and compressed to obtain a tablet core. Subsequently, the tablet cores were coated with a solution/suspension for film coating. Table 6 Tablet formulations\nThe tablets containg Form 2 of tolebrutinib monohydrochloride Form 2 tablets and Form 1 of tolebrutinib monohydrochloride were placed at 25°C/60% RH for 14 days, respectively. XRPD tests were performed before and after storage. The XRPD comparison plots before and after storage are shown in FIG. 26 and FIG. 27, respectively."}, "[6]": {"assay": "Crystal form before and after the tableting process (XRPD)", "description": "as §1"}, "[7]": {"assay": "Stability study of the solid forms under long-term, accelerated, light and oxidation conditions (HPLC and XRPD)", "settings": "long-term (25°C/60%RH) and accelerated (40°C/75%RH) conditions for 14 days; XRPD"}, "[8]": {"settings": "light (25°C/4500lx/closed) and oxidation (in a urea peroxide atmosphere) conditions"}, "[9]": {"settings": "listed as Form 1 of monohydrochloride"}, "[10]": {"settings": "light, 25°C/45001x/closed, 14 days"}, "[11]": {"settings": "long-term (25°C/60%RH) and accelerated (40°C/75%RH) conditions for 14 days"}, "[12]": {"settings": "oxidation, in a urea peroxide atmosphere, 14 days"}, "[13]": {"settings": "listed as Form 2 of monohydrochloride"}}, "note": "Counter-ions that a name gives are not always drawn.", "data": [{"smiles": "C=CC(=O)N1CCC[C@@H](n2c(=O)n(-c3ccc(Oc4ccccc4)cc3)c3c(N)nccc32)C1", "note": "[Form 1 of tolebrutinib monohydrochloride, tolebrutinib monohydrochloride]", "values": [{"measurement": "Purity after placing", "setting": "[1]; 25°C/60%RH/open, 10 months", "value": 99.37, "unit": "%"}, {"measurement": "Sample after placing", "setting": "[1]; 25°C/60%RH/open, 10 months", "value": "Form 1 of monohydrochloride"}, {"measurement": "Purity after placing", "setting": "[1]; 40°C/75%RH/open, 10 months", "value": 98.63, "unit": "%"}, {"measurement": "Sample after placing", "setting": "[1]; 40°C/75%RH/open, 10 months", "value": "Form 1 of monohydrochloride"}, {"measurement": "time remaining stable", "setting": "[1]; [8]", "value": "at least 14 days"}, {"measurement": "time remaining stable", "setting": "[1]; long-term (25°C/60% RH/open) and accelerated (40°C/75% RH/open) conditions, monohydrochloride", "value": "at least 10 months"}, {"measurement": "crystal form after storage", "setting": "[1]; long-term and accelerated conditions for 10 months", "value": "remains unchanged"}, {"measurement": "Solubility", "setting": "[2]; listed as Form 1 of the monohydrochloride salt of tolebrutinib", "value": "approximately 8.3 mg/mL"}, {"measurement": "Solubility", "setting": "[2]", "value": 8.26, "unit": "mg/mL"}, {"measurement": "DVS weight change", "setting": "[3]; between 20% RH to 80% RH at 25 °C", "value": "about 1.2%"}, {"measurement": "weight gain (hygroscopicity)", "setting": "[3]; humidity range of 0%RH to 80%RH", "value": "~0.9", "unit": "%"}, {"measurement": "tensile strength", "setting": "[4]; calculated with T=2H/πDL*9.8, listed as Form 1 of monohydrochloride", "value": 1.2, "unit": "MPa"}, {"measurement": "hardness", "setting": "[4]; [9]", "value": 6.16, "unit": "kg"}, {"measurement": "diameters", "setting": "[4]; [9]", "value": 7.49, "unit": "mm"}, {"measurement": "thicknesses", "setting": "[4]; [9]", "value": 4.19, "unit": "mm"}, {"measurement": "time crystal form remains stable in tablets / formulation with excipients", "setting": "[5]", "value": "at least 14 days"}, {"measurement": "crystal form before and after the tableting process", "setting": "[6]", "value": "remained unchanged"}]}, {"smiles": "C=CC(=O)N1CCC[C@@H](n2c(=O)n(-c3ccc(Oc4ccccc4)cc3)c3c(N)nccc32)C1", "note": "[Form 2 of tolebrutinib monohydrochloride, tolebrutinib monohydrochloride]", "values": [{"measurement": "Purity after", "setting": "[1]; 25°C/60%RH/open, 14 days", "value": 99.26, "unit": "%"}, {"measurement": "Sample after placing", "setting": "[1]; 25°C/60%RH/open, 14 days", "value": "Form 2 of monohydrochloride"}, {"measurement": "Purity after", "setting": "[1]; 40°C/75%RH/open, 14 days", "value": 99.30, "unit": "%"}, {"measurement": "Sample after placing", "setting": "[1]; 40°C/75%RH/open, 14 days", "value": "Form 2 of monohydrochloride"}, {"measurement": "time remaining stable", "setting": "[1]; [8]", "value": "at least 14 days"}, {"measurement": "Purity after", "setting": "[1]; [10]", "value": 99.35, "unit": "%"}, {"measurement": "Sample after placing", "setting": "[1]; [10]", "value": "Form 2 of monohydrochloride"}, {"measurement": "time remaining stable", "setting": "[1]; long-term (25°C/60% RH/open) and accelerated (40°C/75% RH/open) conditions, listed as Form 2 of monohydrochloride, monohydrochloride", "value": "at least 14 days"}, {"measurement": "crystal form after storage", "setting": "[1]; [11]", "value": "remains unchanged"}, {"measurement": "Purity after", "setting": "[1]; [12]", "value": 99.07, "unit": "%"}, {"measurement": "Sample after placing", "setting": "[1]; [12]", "value": "Form 2 of monohydrochloride"}, {"measurement": "solubility at 2 hours", "setting": "[2]; water, thermodynamic from solid", "value": "~7000", "unit": "µg/mL"}, {"measurement": "crystal form before and after DVS", "setting": "[3]; XRPD before and after DVS", "value": "remained unchanged"}, {"measurement": "tensile strength", "setting": "[4]; calculated with T=2H/πDL*9.8, listed as Form 2 of monohydrochloride", "value": 1.0, "unit": "MPa"}, {"measurement": "hardness", "setting": "[4]; [13]", "value": 5.33, "unit": "kg"}, {"measurement": "diameters", "setting": "[4]; [13]", "value": 7.50, "unit": "mm"}, {"measurement": "thicknesses", "setting": "[4]; [13]", "value": 4.23, "unit": "mm"}, {"measurement": "time crystal form remains stable in tablets / formulation with excipients", "setting": "[5]", "value": "at least 14 days"}, {"measurement": "crystal form before and after the tableting process", "setting": "[6]", "value": "remained unchanged"}]}, {"smiles": "C=CC(=O)N1CCCC(n2c(=O)n(-c3ccc(Oc4ccccc4)cc3)c3c(N)nccc32)C1.O=C(O)C=CC(=O)O", "note": "(centres unmarked) [maleate Form 1, tolebrutinib maleate]", "values": [{"measurement": "crystal form after storage", "setting": "[1]; [11]", "value": "remained the same crystalline form"}, {"measurement": "crystal form after storage", "setting": "[7]", "value": "remains unchanged"}]}]}
